Assay results as given in patent US11384060B2, “Amide compounds and use thereof” (ALPHALA CO., LTD., priority 2017, dated 2022).

What was measured:
glucagon receptor (GCGR) = target: T1, glucagon receptor (GCGR) (Homo sapiens, UniProt P47871); assay: I125-glucagon binding assay (competition, GCGR membrane fractions)
T1 construct: expressed in transfected cells; host or cells: CHO-K1 cells overexpressing GCGR (membrane fractions)
Method: I^125-Glucagon Binding Assay
The binding affinity of each compound was evaluated by a competition assay with I^125-glucagon. GCGR membrane fractions were obtained from GCGR overexpressed CHO-K1 cells as a stock of 1 mg/ml concentration. To evaluate the IC50 of compounds binding to GCGR, GCGR membrane fractions were treated with compounds with a serial dilution. The membrane fractions were diluted to 7.5 microgram per well in 70 microliter assay buffer contained 50 mM Tris pH 7.4 and 0.5% (w/v) bovine serum albumin and added into 96 wells plate. The membrane fractions were then mixed with 10 microliter diluted compounds. After 5 minutes pre-incubation, 20 microliter I^125 labeled glucagon (Perkin Elmer) was added into each well at the final concentration of 0.0625 nM. The assay mixtures were incubated at 25° C. for 30 minutes and then transferred onto the Millipore MultiScreen GF/B Plate coated with 0.5% (w/v) Polyethyleneimine. The filter plate was washed with wash buffer contained 50 mM Tris pH 7.4 for 2 times, 300 microliter each time. The residual isotope was detected by Hidex CHAMELEON V micro-beta counter and the IC50 value of each compound binding to GCGR was calculated with non-linear regression.

[1] = target: T2, glucagon receptor (GCGR) overexpressed CHO-K1 cells or human primary hepatocytes (Homo sapiens, UniProt P47871); assay: Glucagon cAMP inhibition assay (Cisbio cAMP Dynamic 2 HTRF); assay type: cell-based; details: inhibition of glucagon (EC50 concentration) induced cAMP production
T2 construct: expressed in transfected cells; host or cells: GCGR overexpressed CHO-K1 cells or human primary hepatocytes (endogenous receptor)
Method: Glucagon cAMP Inhibition Assay
Downstream secondary messenger cAMP induced by glucagon was detected by Cisbio cAMP Dynamic 2 kit. Testing compounds were each prepared as a dimethyl sulfoxide (DMSO) solution at the concentration of 10 mM. To evaluate the potency of compounds in inhibiting the cAMP production, glucagon receptor (GCGR) overexpressed CHO-K1 cells or human primary hepatocytes were treated with compounds with a serial dilution. The cells were re-suspended in Hank's Balanced Salt solution (HBSS) contained 0.1% (w/v) bovine serum albumin and 800 nM 3-isobutyl-1-methylxanthine (IBMX) and seeded into low volume, 384 wells white plate. The diluted compounds were then added into the plate for 30 minutes pre-incubation where the final DMSO concentration was 1%. The cells were stimulated with glucagon at the concentration equaled to EC50 (an indicium of the concentration of a drug that gives half-maximal response) for 30 minutes at room temperature. After incubation, lysis buffer contain cAMP antibody and fluorescence acceptor were added into each well for additional 60 minutes incubation. Results were recorded by Molecular Devices SpectraMax Paradigm with the HTRF Detection Cartridges and the IC50 value of each compound in inhibiting the cAMP production was calculated with non-linear regression based on the amount of cAMP production.

[2] = competition with I125-glucagon 0.0625 nM, membrane fractions of GCGR overexpressed CHO-K1 cells

T1 sequence (P47871 26-477): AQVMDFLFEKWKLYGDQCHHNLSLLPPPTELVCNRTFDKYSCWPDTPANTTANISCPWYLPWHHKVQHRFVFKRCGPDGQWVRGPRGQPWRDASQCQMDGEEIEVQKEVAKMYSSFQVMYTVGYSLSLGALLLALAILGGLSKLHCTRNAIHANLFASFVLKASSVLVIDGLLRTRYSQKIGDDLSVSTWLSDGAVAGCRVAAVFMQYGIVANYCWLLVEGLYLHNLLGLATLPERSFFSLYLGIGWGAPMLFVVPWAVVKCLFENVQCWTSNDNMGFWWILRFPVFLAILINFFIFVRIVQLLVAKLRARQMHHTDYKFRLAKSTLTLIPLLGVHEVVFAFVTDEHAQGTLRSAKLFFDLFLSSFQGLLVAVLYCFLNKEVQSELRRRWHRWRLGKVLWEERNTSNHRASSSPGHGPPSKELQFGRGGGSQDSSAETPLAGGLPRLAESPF
T2 sequence (P47871 26-477): as above

IC50 (glucagon receptor (GCGR); [2]) [µM]	IC50 cAMP [1] [nM]	inhibition at 30 µM (glucagon receptor (GCGR); compound at the concentration of 30 μM, read-out: percentage of inhibition (binding)) [%]	IC50 (glucagon receptor (GCGR); cell prints its own unit uM under a nM head) [µM]	Structure (SMILES)
0.227	1403	–	–	CC(C)[C@@H](COc1ccc(-c2cc3ncccc3o2)cc1)Nc1ccc(C(=O)NCCC(=O)O)cc1 [Compound 1-41, (S)-3-(4-((1-(4-(furo[3,2-b]pyridin-2-yl)phenoxy)-3-methylbutan-2-yl)amino)benzamido)propanoic Acid]
0.234	298	–	–	CC(C)(C)[C@@H](COc1ccc(-c2ccc(C(F)(F)F)cc2Cl)cc1)Nc1ccc(C(=O)NCCC(=O)O)cc1 [Compound 1-42, (S)-3-(4-((1-((2′-chloro-4′-(trifluoromethyl)-[1,1′-biphenyl]-4-yl)oxy)-3,3-dimethylbutan-2-yl)amino)benzamido)propanoic aid]
0.583	>30000	–	–	CC(C)[C@@H](COc1ccc(-c2nnc(C(F)(F)F)o2)cc1)Nc1ccc(C(=O)NCCC(=O)O)cc1 [Compound 1-43, 3-(4-((3-methyl-1-(4-(5-(trifluoromethyl)-1,3,4-oxadiazol-2-yl)phenoxy)butan-2-yl)amino)benzamido)propanoic Acid]
0.388	10000	–	–	CCC(C)[C@@H](COc1ccc(-c2nnc(C(F)(F)F)o2)cc1)Nc1ccc(C(=O)NCCC(=O)O)cc1 (some centres unmarked) [Compound 1-44, 3-(4-((3-methyl-1-(4-(5-(trifluoromethyl)-1,3,4-oxadiazol-2-yl)phenoxy)pentan-2-yl)amino)benzamido)propanoic Acid]
1.52	11981	–	–	CC[C@H](C)[C@@H](COc1ccc(-c2nnc(C(C)(C)C)o2)cc1)Nc1ccc(C(=O)NCCC(=O)O)cc1 [Compound 1-45, 3-(4-(((2S,3S)-1-(4-(5-(tert-butyl)-1,3,4-oxadiazol-2-yl)phenoxy)-3-methylpentan-2-yl)amino)benzamido)propanoic Acid]
0.601	5441	–	–	CC[C@H](C)[C@@H](COc1ccc(-c2nnc(-c3ccccc3)o2)cc1)Nc1ccc(C(=O)NCCC(=O)O)cc1 [Compound 1-46, 3-(4-(((2S,3S)-3-methyl-1-(4-(5-phenyl-1,3,4-oxadiazol-2-yl)phenoxy)pentan-2-yl)amino)benzamido)propanoic Acid]
> 30	170	56	–	CCOC(=O)CCNC(=O)c1ccc(N[C@H](COc2ccc(-c3nc4ccccc4o3)cc2)C(C)C)cc1 [Compound 1-47, Ethyl (S)-3-(4-((1-(4-(benzo[d]oxazol-2-yl)phenoxy)-3-methylbutan-2-yl)amino)benzamido)propanoate]
0.138	546	–	–	CC(C)[C@@H](COc1ccc(-c2nc3ccccc3o2)cc1)Nc1ccc(C(=O)NCCC(=O)O)cc1 [Compound 1-48, (S)-3-(4-((1-(4-(benzo[d]oxazol-2-yl)phenoxy)-3-methylbutan-2-yl)amino)benzamido)propanoic Acid]
7.2	7065	–	–	CCCC[C@@H](COc1ccc(-c2nnc(C(C)(C)C)o2)cc1)Nc1ccc(C(=O)NCCC(=O)O)cc1 [Compound 1-49, (S)-3-(4-((1-(4-(5-(tert-butyl)-1,3,4-oxadiazol-2-yl)phenoxy)hexan-2-yl)amino)benzamido)propanoic Acid]
0.715	1622	–	–	CCCC[C@@H](COc1ccc(-c2nnc(-c3ccccc3)o2)cc1)Nc1ccc(C(=O)NCCC(=O)O)cc1 [Compound 1-50, (S)-3-(4-((1-(4-(5-phenyl-1,3,4-oxadiazol-2-yl)phenoxy)hexan-2-yl)amino)benzamido)propanoic Acid]
–	197	–	> 30	CCOC(=O)CCNC(=O)c1ccc(N[C@@H](COc2ccc(-c3nc4ccccc4s3)cc2)C(C)C)cc1 [Compound 1-51, Ethyl (R)-3-(4-((1-(4-(benzo[d]thiazol-2-yl)phenoxy)-3-methylbutan-2-yl)amino)benzamido)propanoate]
0.089	377	–	–	CC(C)[C@H](COc1ccc(-c2nc3ccccc3s2)cc1)Nc1ccc(C(=O)NCCC(=O)O)cc1 [Compound 1-52, (R)-3-(4-((1-(4-(benzo[d]thiazol-2-yl)phenoxy)-3-methylbutan-2-yl)amino)benzamido)propanoic Acid]
24.5	90	–	–	CCOC(=O)CCNC(=O)c1ccc(N[C@@H](COc2ccc(-c3nc4ccccc4o3)cc2)C(C)C)cc1 [Compound 1-53]
0.095	213	–	–	CC(C)[C@H](COc1ccc(-c2nc3ccccc3o2)cc1)Nc1ccc(C(=O)NCCC(=O)O)cc1 [Compound 1-54, (R)-3-(4-((1-(4-(benzo[d]oxazol-2-yl)phenoxy)-3-methylbutan-2-yl)amino)benzamido)propanoic Acid]
0.266	322.9	–	–	Cc1cc(OC[C@@H](Cc2ccccc2)Nc2ccc(C(=O)NCCC(=O)O)cc2)cc(C)c1-c1ccc(C(F)(F)F)cc1 [Compound 2-1, (R)-3-(4-((1-((2,6-dimethyl-4′-(trifluoromethyl)-[1,1′-biphenyl]-4-yl)oxy)-3-phenylpropan-2-yl)amino)benzamido)propanoic Acid]
0.378	474.8	–	–	Cc1cc(OC[C@@H](Cc2ccccc2)Nc2ccc(C(=O)NCCC(=O)O)cc2)cc(C)c1-c1ccc(OC(F)(F)F)cc1 [Compound 2-2]
0.465	493	–	–	Cc1cc(OC[C@H](CC(C)C)Nc2ccc(C(=O)NCCC(=O)O)cc2)cc(C)c1-c1ccc(OC(F)(F)F)cc1 [Compound 2-3, (S)-3-(4-((1-((2,6-dimethyl-4′-(trifluoromethoxy)-[1,1′-biphenyl]-4-yl)oxy)-4-methylpentan-2-yl)amino)benzamido)propanoic Acid]
0.091	245.8	–	–	Cc1cc(OC[C@@H](Nc2ccc(C(=O)NCCC(=O)O)cc2)C(C)C)cc(C)c1-c1ccc(C(F)(F)F)cc1 [Compound 2-4, (S)-3-(4-((1-((2,6-dimethyl-4′-(trifluoromethyl)-[1,1′-biphenyl]-4-yl)oxy)-3-methylbutan-2-yl)amino)benzamido)propanoic Acid]
0.347	352	–	–	Cc1cc(OC[C@@H](Nc2ccc(C(=O)NCCC(=O)O)cc2)C(C)C)cc(C)c1-c1ccc(C(C)(C)C)cc1 [Compound 2-5, (S)-3-(4-((1-((4′-(tert-butyl)-2,6-dimethyl-[1,1′-biphenyl]-4-yl)oxy)-3-methylbutan-2-yl)amino)benzamido)propanoic Acid]
0.067	448	–	–	CC[C@H](C)[C@@H](COc1cc(C)c(-c2ccc(C(C)(C)C)cc2)c(C)c1)Nc1ccc(C(=O)NCCC(=O)O)cc1 [Compound 2-6, 3-(4-(((2S,3S)-1-((4′-(tert-butyl)-2,6-dimethyl-[1,1′-biphenyl]-4-yl)oxy)-3-methylpentan-2-yl)amino)benzamido)propanoic Acid]
0.158	468	–	–	CC[C@H](C)[C@@H](COc1cc(C)c(-c2cc3ccccc3o2)c(C)c1)Nc1ccc(C(=O)NCCC(=O)O)cc1 [Compound 2-7, 3-(4-(((2S,3S)-1-(4-(benzofuran-2-yl)-3,5-dimethylphenoxy)-3-methylpentan-2-yl)amino)benzamido)propanoic Acid]
0.627	602	–	–	CC[C@H](C)[C@@H](COc1cc(C)c(-c2ccc(OC(F)(F)F)cc2)c(C)c1)Nc1ccc(C(=O)NCCC(=O)O)cc1 [Compound 2-8, 3-(4-(((2S,3S)-1-((2,6-dimethyl-4′-(trifluoromethoxy)-[1,1′-biphenyl]-4-yl)oxy)-3-methylpentan-2-yl)amino)benzamido)propanoic Acid]
0.06	447.6	–	–	CC[C@H](C)[C@@H](COc1cc(C)c(-c2ccc(Cl)cc2Cl)c(C)c1)Nc1ccc(C(=O)NCCC(=O)O)cc1 [Compound 2-9, 3-(4-(((2S,3S)-1-((2′,4′-dichloro-2,6-dimethyl-[1,1′-biphenyl]-4-yl)oxy)-3-methylpentan-2-yl)amino)benzamido)propanoic Acid]
